Data set [1] can be described thus: Elimination half life in Sprague-Dawley rat at 5 mg/kg, iv and 20 mg/kg, po. The following applies: in vivo. Format: ADME, organism-based.
Data set [2] can be described thus: Elimination half life in Beagle dog at 1 mg/kg, iv and 4 mg/kg, po. Format: ADME, organism-based, Canis lupus familiaris. The conditions noted are these: in vivo.
Data set [3] in a line: Bioavailability in Sprague-Dawley rat at 5 mg/kg, iv and 20 mg/kg, po. Format: ADME, organism-based. The following applies: in vivo.
Data set [4] can be described thus: Bioavailability in Beagle dog at 1 mg/kg, iv and 4 mg/kg, po. Format: ADME, organism-based, Canis lupus familiaris. The conditions noted are these: in vivo.
The nature of data set [5]: AUC (0 to 24 hrs) in Sprague-Dawley rat at 20 mg/kg, po. Format: ADME, organism-based. The arrangement: time < 24 hr, dose 20 mg/kg, route oral. The conditions noted are these: plasma.
Data set [6] in a line: AUC (0 to 24 hrs) in Beagle dog at 4 mg/kg, po. The conditions noted are these: plasma. Format: ADME, organism-based, Canis lupus familiaris. Further details: time < 24 hr, dose 4 mg/kg, route oral.
Data set [7] can be described thus: Clearance in Sprague-Dawley rat at 5 mg/kg, iv and 20 mg/kg, po. Format: ADME, organism-based. The conditions noted are these: in vivo.
A short description of data set [8]: Clearance in Beagle dog at 1 mg/kg, iv and 4 mg/kg, po. Format: ADME, organism-based, Canis lupus familiaris. The conditions noted are these: in vivo.
Data set [9] is described as follows: Metabolic stability in rat liver microsome. Format: ADME. The conditions noted are these: microsomes.
Data set [10] is described as follows: Metabolic stability in human liver microsome. Format: ADME. The conditions noted are these: microsomes.
Data set [11] deals with Hepatocyte. Nature of the data set: Metabolic stability in human hepatocytes. Format: ADME, cell-based.
Data set [12] concerns Hepatocyte. Briefly: Metabolic stability in rat hepatocytes. Format: ADME, cell-based.
The test system of a further data set is Plasma. Nature of the data set: Drug level in Sprague-Dawley rat plasma at 150 uCi/kg, po after 24 hrs. The following applies: in vivo. Format: ADME, organism-based.
For a further data set, the system named is Liver. Briefly: Drug level in Sprague-Dawley rat liver at 150 uCi/kg, po after 24 hrs. Format: ADME, organism-based. The conditions noted are these: in vivo.

As to `CCOc1c2c(c(OCC)c3ccccc13)C(=O)N(c1ccc(CC3(NC(=O)NS(=O)(=O)c4c(Cl)cccc4Cl)CC3)cc1C)C2`, the half-life in data set [1] was 6.6 h; in data set [2], 4.3 h. Further, the bioavailability came to 84% in data set [3] and 100% in data set [4]. Besides, the area under the curve AUC(0-t) at 24 h in data set [5] came out at 37.4 µM·h; in [6], 101 µM·h. The clearance came out at 11 mL/min/kg in data set [7] and 1.2 mL/min/kg in [8]. Also, the Stability was found to be 97% in data set [9], 90% in data set [10], 96% in the data set on Hepatocyte [11] and 91% in the data set on Hepatocyte [12]. Also, the Drug uptake with Plasma and with Liver was less than 10 pmol/mg throughout.

As usually defined, the half-life is the time needed for the level to fall by half in the phase considered. One may read the bioavailability as the share of a dose that reaches the circulation, judged against a reference dose that is usually intravenous. High values mean much systemic uptake, low ones little systemic uptake. A word on the AUC(0-t): it is exposure summed from dosing to a finite time, without extrapolation to infinity. A high value points to more exposure.

Source of the values: ChEMBL document CHEMBL1667778, “Naphthalene/quinoline amides and sulfonylureas as potent and selective antagonists of the EP4 receptor” (Bioorg Med Chem Lett, 2011).
